This passage reports IC50 results from patent US11319328B2 (priority 2017, dated 2022).

Common to all, as to test: cells
Holding throughout (type): cell-based

For assay [1], the system named is breast cancer MCF7 cell line. The settings on record: cultured 48 h, MTT. The protocol:
(§1) A cell strain: Hepatoma HepG2, cervical cancer Hela, lung cancer A549, breast cancer MCF7 cell line and human normal liver cell HL7702 were purchased from Wuhan Boster Biological Technology Co., Ltd.;
(§2) HepG2, Hela, A549, MCF 7 cells in logarithmic growth phase and human normal hepatocytes HL7702 were centrifuged at 1500 rpm for 5 min, and the supernatant was discarded; the cells were digested with a suitable amount of trypsin, and then suspended with a suitable amount of culture medium (HepG2, Hela and HL7702 cells were suspended with penicillin-streptomycin RPMI1640 culture medium containing 10% calf serum, A549 and MCF 7 cells with penicillin-streptomycin high glucose DMEM culture medium containing 10% calf serum, to adjust the cell concentration to 1.5×10^4 cells/well, the cells were seeded in 96-well plates, and the following experimental groups were set:
(§3) 0.10 mL of the cell suspension was added to each well, and incubated at 37° C., 5% CO2 and saturated humidity for 12 h, and the culture medium was discarded when the cell density was nearly 70%. […] 100 μl of 5 mg/ml MTT was added per well, standing for 4 h at 37° C. 100 μl of DMSO was added to each well, followed by shaking on a shaker for 10 min at 37° C., the absorbance (OD) was measured at 492 nm, and the MTT ratio was calculated as the OD value of drug group/OD value of negative control group.

The subject of assay [2] is Hepatoma HepG2. The following applies: cultured 48 h, MTT. The protocol: as §1, §2, §3
In assay [3] the test system is human normal liver cell HL7702. The settings on record: human normal hepatocytes HL7702, cultured 48 h, MTT. The protocol: as §1, §2, §3
Assay [4] deals with cervical cancer Hela. The following applies: cultured 48 h, MTT. The protocol:
as §1, §2, §3

For assay [5], the system named is lung cancer A549. The following applies: cultured 48 h, MTT. The protocol:
as §1, §2, §3

A word on the IC50: it is the concentration that gives 50% inhibition. The low end stands for higher potency, the high end for lower potency. With `COc1cc(C2c3cc4c(cc3C(Nc3ccc5ncccc5c3)C3COC(=O)C23)OCO4)cc(OC)c1O` (stereo not drawn) [Compound 26, 4β-NH-(6-aminoquinoline)-4′-demethylepipodophyllotoxin], the IC50 in assay [1] was found to be 4.3 ± 0.8 µM; in assay [2], 10 ± 1.9 µM; in assay [3], 22.8 ± 4.2 µM; in assay [4] it was 5.7 ± 1.1 µM; in assay [5] it was 2 ± 0.5 µM.
On the same counts, the results for `COc1cc(C2c3cc4c(cc3C(Nc3cccc5ncccc35)C3COC(=O)C23)OCO4)cc(OC)c1O` (stereo not drawn) [Compound 27, 4β-NH-(5-aminoquinoline)-4′-demethylepipodophyllotoxin] are 2.4 ± 0.9 µM, 1.6 ± 0.8 µM, 15.6 ± 1.8 µM, 2.1 ± 1 µM and 1.3 ± 0.2 µM.
For `COc1cc(C2c3cc4c(cc3C(Nc3cccc5cnccc35)C3COC(=O)C23)OCO4)cc(OC)c1O` (stereo not drawn) [Compound 28, 4β-NH-(5-aminoisoquinoline)-4′-demethylepipodophyllotoxin], the IC50 in assay [1] is 2.5 ± 0.9 µM; in assay [2] it was 2.8 ± 1.6 µM; in assay [3], 19.8 ± 2.1 µM; in assay [4], 1.9 ± 0.9 µM; in assay [5], 1.4 ± 0.6 µM.
On the same counts, the results for `COc1cc([C@@H]2c3cc4c(cc3[C@@H](Nc3cccc5cccnc35)[C@@H]3COC(=O)[C@H]23)OCO4)cc(OC)c1O` [Compound 29, 4β-NH-(8-aminoquinoline)-4′-demethylepipodophyllotoxin] are 1.5 ± 0.4 µM, 4.5 ± 1.5 µM, 73 ± 7.8 µM, 3.8 ± 0.2 µM and 2.8 ± 0.4 µM.
Take `COc1cc(C2c3cc4c(cc3C(Nc3cccc5ccc(C)nc35)C3COC(=O)C23)OCO4)cc(OC)c1O` (stereo not drawn) [Compound 30, 4β-NH-(8-aminoquinaldine)-4′-demethylepipodophyllotoxin]: the IC50 in assay [1] is 3 ± 0.5 µM; in assay [2], 5 ± 1.1 µM; in assay [3] it was more than 100 µM; in assay [4], 4.2 ± 0.8 µM; in assay [5] it was 0.5 ± 0.05 µM.
On to `COc1cc(C2c3cc4c(cc3C(Nc3ccc5[nH]ncc5c3)C3COC(=O)C23)OCO4)cc(OC)c1O` (stereo not drawn) [Compound 31, 4β-NH-(5-indazolamine)-4′-demethylepipodophyllotoxin], for which the IC50 in assay [1] was 3.5 ± 0.3 µM; in assay [2], 6.8 ± 1.5 µM; in assay [3], more than 100 µM; in assay [4], 4.3 ± 0.9 µM; in assay [5] it was 1.7 ± 0.3 µM.
On the same counts, the results for `COc1cc([C@@H]2c3cc4c(cc3[C@@H](Nc3ccc5[nH]ccc5c3)[C@@H]3COC(=O)[C@H]23)OCO4)cc(OC)c1O` [Compound 34, 4β-NH-(5-aminoindole)-4′-demethylepipodophyllotoxin] are 76.3 ± 5.7 µM, more than 100 µM, more than 100 µM, 21.7 ± 5.3 µM and more than 100 µM.
On the same counts, the results for `COc1cc(C2c3cc4c(cc3C(Nc3ccc5cc[nH]c5c3)C3COC(=O)C23)OCO4)cc(OC)c1O` (stereo not drawn) [Compound 35, 4β-NH-(6-aminoindole)-4′-demethylepipodophyllotoxin] are 34.5 ± 3.8 µM, 19.5 ± 2.4 µM, more than 100 µM, 21.1 ± 2.9 µM and 6.5 ± 1 µM.
On the same counts, the results for `COc1cc(C2c3cc4c(cc3C(Nc3cccc5cc[nH]c35)C3COC(=O)C23)OCO4)cc(OC)c1O` (stereo not drawn) [Compound 36, 4β-NH-(7-aminoindole)-4′-demethylepipodophyllotoxin] are 8 ± 5.5 µM, 15.4 ± 2.2 µM, 31.5 ± 3.2 µM, 15.4 ± 6.1 µM and 19.5 ± 1.5 µM.
As for `COc1cc(C2c3cc4c(cc3C(Nc3ccccc3-c3nc5ccccc5[nH]3)C3COC(=O)C23)OCO4)cc(OC)c1O` (stereo not drawn) [Compound 37, 4β-NH-(2-(2-aminophenyl)benzimidazole)-4′-demethylepipodophyllotoxin], the IC50 in assay [1] was more than 100 µM; in assay [2] it was more than 100 µM; in assay [3], more than 100 µM; in assay [4], 48.6 ± 6.2 µM; in assay [5] it was more than 100 µM.
As to `COc1cc([C@@H]2c3cc4c(cc3[C@@H](O[C@@H]3O[C@@H]5CO[C@@H](C)O[C@H]5[C@H](O)[C@H]3O)[C@H]3COC(=O)[C@H]23)OCO4)cc(OC)c1O` [Etoposide, etoposide, reference compound], the IC50 in assay [1] (Homo sapiens) was 53.8 ± 5.6 µM; in assay [2] (Homo sapiens), 20 ± 1.3 µM; in assay [3] (L02) it was 24.6 ± 3.8 µM; in assay [4] (Homo sapiens), 21.4 ± 1.6 µM; in assay [5] (Homo sapiens), 22.5 ± 1.8 µM.
